Results taken from patent US20100197788A9, “Preventive or therapeutic agent for disease caused by decrease in lacrimal fluid” (priority 2005, published 2010).
Where a name gives a salt, the structure may show the parent alone.

Assays:
[1] = test system: male Japanese white rabbits; assay: Measurement of tear secretion in rabbits given a β3 AR stimulant (Example 1), with or without ICI-118551 pre-treatment; assay type: in vivo, rabbit
Description: Four fasting male Japanese white rabbits (about 3 kg) were allocated to each group. Compound 1 (hydrochloride, 3 or 30 mg/kg), a β3 AR stimulant, or the vehicle (0.5% gum Arabic) was administered to the duodenum through a needle placed in the duodenum of a rabbit, which was anesthetized with urethane (25%, 5 mL/kg, subcutaneously). The quantity of tear secretion was measured for 5 min before drug administration and for 5 min at 20 min after drug administration in the following manner. One piece each of pre-weighed filter paper (Wattman No. 41, 0.22 mm thick, 2.5×1.5 mm) was inserted to each of the upper and lower eyelids of either right or left eye. The difference in weight of the filter papers before and after insertion (post-insertion weight−pre-insertion weight) was defined as the quantity of tear secretion. Fifty (50) μL of a local anesthetic agent, 0.4% oxybuprocaine hydrochloride (Santen Co.), was instilled into eyes 5 min before each measurement. Tear and the instilled local anesthetic were wiped immediately before the filter paper was inserted. Filter papers recovered after each measurement were placed into tubes. A phosphate buffer (pH 7.4) (500 μL) was added to each of the tubes, and they were agitated for 30 sec. After the filter papers were removed and the mixture was centrifuged at 1,880×g for 5 min, protein concentrations in supernatant were measured using Micro BCA Protein Assay Reagent Kit (Pierce Co.). The quantity of protein in tear was calculated based on the protein concentration and the quantity of tear secretion at each time. The difference in the quantity of tear secretion before administration of a test drug and that at each measurement after administration was defined as a change in the quantity of tear secretion or protein in tear. Each milligram of the change in the quantity of tear was taken as 1 μL in tabulation. As a result, administration of Compound 1 (hydrochloride, 3 or 30 mg/kg) into the duodenum facilitated the tear secretion and protein secretion in tear.
In addition, in order to study the role played by a β2 AR stimulating activity in the above-described actions of Compound 1, 30 μg/kg of ICI-118551 (Sigma Co.), a selective β2 AR inhibitor, was administered intravenously 5 min before administration of Compound 1 (30 mg/kg) and the same test was performed. The facilitating activities of tear secretion and protein secretion in tear by Compound 1 were not affected by pre-treatment with the selective β2 AR inhibitor, ICI-118551 (30 μg/kg, i.v.) (FIG. 5). The results confirmed that the Compound 1's activities facilitating tear secretion and protein secretion in tear were exerted by way of β3 AR.

[2] = test system: male Japanese white rabbits; assay: Measurement of tear in rabbits given a β3 AR stimulant having a β2 AR stimulating activity (Example 2); assay type: in vivo, rabbit; details: for total quantity of protein secretion in tear / total quantity of tear secretion: 60 min, compared to Control group
Description: Four fasting male Japanese white rabbits (about 3 kg) were allocated to each group. Compound 2 (0.3, 1 or 10 mg/kg), which is a β3 AR stimulant having a β2 AR stimulating activity, terbutaline sulfate (10 mg/kg), which is a β2 AR stimulant, or their vehicle (distilled water) was administered to the duodenum through a needle placed in the duodenum of a rabbit which was anesthetized with urethane (25%, 5 mL/kg, subcutaneously). In the same manner as in Example 1, quantities of tear secretion and protein in tear were measured for each 5 min before drug administration and at 5, 20, 30, 40 and 50 min after drug administration. The total quantities of tear secretion and protein in tear were defined as the sum total of the quantities of secretion at each measurement time during 60 min after administration of the test drug. Each […] of the change in the quantity of tear was considered as 1 μL in tabulation.

male SD strain rats = assay: Measurement of tear in rats given a β3 AR stimulant having a β2 AR stimulating activity (Example 3); assay type: in vivo, rat; details: for total quantity of protein secretion in tear / total quantity of tear secretion: 60 min, compared to Control group
Description: Nine (9) to 10 fasting male SD strain rats (7 weeks old) were allocated to each group. Rats were fixed in prone position under urethane anesthesia (25%, 5 mL/kg, subcutaneously). Compound 2 (0.3, 1 or 10 mg/kg), which is a β3 AR stimulant having a β2 AR stimulating activity, terbutaline sulfate (10 mg/kg), which is a β2 AR stimulant, or their vehicle (distilled water) were administered to the duodenum through a needle placed in the duodenum. One end of a capillary (Drummond Microdispenser Co. 10 μL) was placed at the inner canthus of rat right eye after tear was wiped. The quantity of tear secretion was measured by the length of the capillary filled with tear in 60 minutes after drug administration. The total quantity of tear secretion (μL) was calculated using the inner diameter of the capillary and the length of the capillary filled with tear. After the quantity of tear secretion was measured, the tear in the capillary was recovered in a tube to measure the protein concentration using Micro BCA Protein Assay Reagent Kit (Pierce Co.). The total quantity of protein in tear was calculated using the obtained protein concentration and the total quantity of tear secretion.

[3] = test system: male Japanese white rabbits; assay: Measurement of tear in rabbits following ocular instillation (Example 4); assay type: in vivo, rabbit; details: 0.1% solution, 50 μL
Description: Four fasting male Japanese white rabbits (about 3 kg) were allocated to each group. After rabbits were anesthetized with urethane (25%, 5 mL/kg, subcutaneously), 50 μL of Compound 2 (0.1% solution) or the vehicle (a phosphate buffer solution, pH 7.4) was instilled in either right or left eye. The quantity of tear secretion was measured and calculated for each 5 min before and at 5 and 20 min after instillation in the same manner as in Example 1. The difference in the quantity of tear secretion before administration of a test drug and that at each measurement time after ocular instillation was defined as a change in the quantity of tear secretion. Each milligram of the change in the quantity of tear secretion was considered as 1 μL in tabulation.

rabbit conjunctiva = assay: Mucin secretion from the rabbit conjunctiva following ocular instillation, impression cytology method (Example 5); assay type: in vivo; details: 0.1% solution, 50 μL, 30 min after instillation, vs vehicle, rabbits
Description: Four male Japanese white rabbits (about 3 kg) were allocated to each group. After rabbits were anesthetized with ketamine-xylazine (3:1), 50 μL of Compound 2 (0.1% solution), terbutaline sulfate (0.1% solution) or their vehicle (a phosphate buffer solution, pH 7.4) were instilled in either side of eyes. Mucin secretion from the conjunctiva was measured 30 min after instillation by impression cytology method. That is, after ocular instillation of 50 μL of a local anesthetic (0.4% oxybuprocaine hydrochloride by Santen Co.), residual tear was wiped 5 min after instillation and 3×3 mm cellulose acetate filter paper was pressed on the conjunctiva for 30 sec. Then, PAS staining was performed with the recovered filter papers in the same manner as in Example 2. After filter papers were cleared and embedded, the number of PAS positive goblet cells existing in a certain visual field of a microscope was counted. Decreases in the count of PAS positive goblet cells indicate that mucin secretion from the conjunctiva is facilitated. […] However, terbutaline sulfate had no effect (FIG. 9).

[4] = Compound 1 30 mg/kg, ICI-118551 30 μg/kg i.v. 5 min before
[5] = hydrochloride, 3 or 30 mg/kg into the duodenum, anesthetized rabbits, 5 min at 20 min after administration vs before
[6] = 0.3, 1 and 10 mg/kg into the duodenum
[7] = doses of 1 mg/kg and above into the duodenum
[8] = 10 mg/kg into the duodenum, compared to Compound 2 (10 mg/kg) group

SMILES: CCOC(=O)COc1cc(C)c(CCN[C@@H](C)[C@H](O)c2ccc(O)cc2)cc1C [Compound 1, ethyl 2-[4-[2-[[(1S,2R)-2-hydroxy-2-(4-hydroxy-phenyl)-1-methylethyl]amino]ethyl]-2,5-dimethylphenoxy]-acetate]
- change in the quantity of protein in tear ([1]; 30 mg/kg into the duodenum, compared to Control group (p<0.05, Dunnett)): significantly increased
- facilitating activity of protein secretion in tear after pre-treatment with selective β2 AR inhibitor [1, 4]: not affected
- facilitating activity of tear secretion after pre-treatment with selective β2 AR inhibitor [1, 4]: not affected
- protein secretion in tear [1, 5]: facilitated
- tear secretion [1, 5]: facilitated

SMILES: C[C@H](NCCc1ccc(OCC(=O)O)cc1)[C@H](O)c1ccc(O)cc1 [Compound 2]
- protein secretion in tear [2, 6]: facilitated dose-dependently
- tear secretion [2, 6]: facilitated dose-dependently
- total quantity of protein secretion in tear [2, 7]: significantly increased
- total quantity of tear secretion [2, 7]: significantly increased
- protein secretion in tear (male SD strain rats; [6]): facilitated dose-dependently
- tear secretion (male SD strain rats; [6]): facilitated dose-dependently
- total quantity of protein secretion in tear (male SD strain rats; [7]): significantly increased
- total quantity of tear secretion (male SD strain rats; [7]): significantly increased
- tear secretion [3]: facilitated
- quantity of tear secretion measured for 5 min after ocular instillation ([3]; compared to Control group): significantly increased
- mucin secretion from the conjunctiva (count of PAS positive goblet cells) (rabbit conjunctiva): facilitated mucin secretion from the conjunctiva more than the vehicle did

SMILES: CC(C)(C)NCC(O)c1cc(O)cc(O)c1 (stereo not drawn) [terbutaline sulfate, reference compound]
- total quantity of protein secretion in tear ([2]; 10 mg/kg into the duodenum): significantly increased
- total quantity of tear secretion ([2]; 10 mg/kg into the duodenum): significantly increased
- increase in total quantity of protein secretion in tear [2, 8]: significantly lower
- increase in total quantity of tear secretion [2, 8]: significantly lower
- total quantity of protein secretion in tear (male SD strain rats; 10 mg/kg into the duodenum): significantly increased
- total quantity of tear secretion (male SD strain rats; 10 mg/kg into the duodenum): significantly increased
- total quantity of protein in tear (male SD strain rats; [8]): significantly lower
- mucin secretion from the conjunctiva (count of PAS positive goblet cells) (rabbit conjunctiva): no effect
